For data set [1], the system named is Trypanosoma brucei brucei. Briefly: Antitrypanosomal activity against Trypanosoma brucei brucei Lister 427 VSG 221 [TetR T7RNAP] transgenic bloodstream forms assessed as reduction in cell viability after 48 hrs by alamar blue assay. As to conditions: Lister 427 VSG 221, 48 h. In kind it is functional. For orientation: The colour change of resazurin is a common sign of viable cells or microbes.

The target in data set [2] is T1, E. coli GroEL/ES (Escherichia coli, UniProt P0A6F5). The experiment in a line: Inhibition of Escherichia coli GroEL/GroES expressed in Escherichia coli DH5alpha/BL21 (DE3) assessed as inhibition of denatured MDH refolding preincubated for 10 mins followed by ATP addition measured after 20 to 40 mins by fluorescence based assay.
Data set [3] addresses T2, HSP60/HSP10 (Homo sapiens, UniProt P10809). Briefly: Inhibition of human mitochondrial HSP60/HSP10 expressed in Escherichia coli DH5alpha/BL21 (DE3) assessed as inhibition of denatured MDH refolding preincubated for 10 mins followed by ATP addition measured after 40 to 60 mins by fluorescence based assay.
For data set [4], the target named is T1, E. coli GroEL/ES. Briefly: Inhibition of Escherichia coli GroEL/GroES-ATPase activity expressed in Escherichia coli DH5alpha/BL21 (DE3) assessed as inhibition of denatured MDH refolding preincubated for 10 mins followed by ATP addition measured after 20 to 40 mins by malachite green dye based fluorescence assay.
Data set [5] deals with T2, HSP60/HSP10. Briefly: Inhibition of human mitochondrial HSP60/HSP10-ATPase activity expressed in Escherichia coli DH5alpha/BL21 (DE3) assessed as inhibition of denatured MDH refolding preincubated for 10 mins followed by ATP addition measured after 40 to 60 mins by malachite green dye based fluorescence assay.
A short description of data set [6]: Cytotoxicity against human THLE3 cells assessed as reduction in cell viability after 48 hrs by alamar blue assay. In kind it is toxicity, cell-based.
Data set [7] can be described thus: Cytotoxicity against HEK293 cells assessed as reduction in cell viability after 48 hrs by alamar blue assay. In kind it is toxicity, cell-based. The following applies: human.
Data set [8] can be described thus: Inhibition of pig heart native MDH reporter reaction after 20 to 40 mins by fluorescence based assay. On the set-up: species or system Sus scrofa.

T1 sequence (P0A6F5 whole entry, looked up): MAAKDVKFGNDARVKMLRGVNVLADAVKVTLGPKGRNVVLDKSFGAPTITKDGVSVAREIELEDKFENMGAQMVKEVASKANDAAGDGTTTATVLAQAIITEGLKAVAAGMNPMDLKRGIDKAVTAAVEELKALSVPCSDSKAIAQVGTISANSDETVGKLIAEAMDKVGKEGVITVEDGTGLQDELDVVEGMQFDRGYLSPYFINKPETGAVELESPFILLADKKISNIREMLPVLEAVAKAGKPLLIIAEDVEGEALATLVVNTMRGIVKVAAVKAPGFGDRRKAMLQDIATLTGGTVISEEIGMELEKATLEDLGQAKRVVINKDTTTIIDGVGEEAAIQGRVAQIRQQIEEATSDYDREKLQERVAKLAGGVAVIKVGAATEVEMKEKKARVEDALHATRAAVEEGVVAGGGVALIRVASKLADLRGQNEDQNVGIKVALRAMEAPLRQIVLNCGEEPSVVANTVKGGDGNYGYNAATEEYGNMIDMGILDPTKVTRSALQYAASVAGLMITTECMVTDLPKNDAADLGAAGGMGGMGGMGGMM
T2 sequence (P10809 whole entry): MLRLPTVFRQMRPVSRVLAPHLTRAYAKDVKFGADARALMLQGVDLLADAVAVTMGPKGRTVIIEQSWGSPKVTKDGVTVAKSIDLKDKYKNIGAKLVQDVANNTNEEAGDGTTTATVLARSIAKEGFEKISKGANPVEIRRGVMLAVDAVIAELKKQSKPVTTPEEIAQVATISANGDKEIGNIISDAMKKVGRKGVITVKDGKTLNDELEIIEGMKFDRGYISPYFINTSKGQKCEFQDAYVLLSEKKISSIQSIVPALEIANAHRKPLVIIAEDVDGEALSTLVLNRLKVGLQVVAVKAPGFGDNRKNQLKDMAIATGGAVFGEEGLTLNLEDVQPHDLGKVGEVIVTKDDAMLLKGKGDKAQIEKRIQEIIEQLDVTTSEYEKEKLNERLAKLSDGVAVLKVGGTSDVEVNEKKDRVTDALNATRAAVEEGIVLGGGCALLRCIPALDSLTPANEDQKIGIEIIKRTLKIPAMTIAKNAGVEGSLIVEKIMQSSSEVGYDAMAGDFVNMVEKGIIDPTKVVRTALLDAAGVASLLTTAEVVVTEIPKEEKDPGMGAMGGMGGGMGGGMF
T2 sequence (P61604 whole entry, further chain): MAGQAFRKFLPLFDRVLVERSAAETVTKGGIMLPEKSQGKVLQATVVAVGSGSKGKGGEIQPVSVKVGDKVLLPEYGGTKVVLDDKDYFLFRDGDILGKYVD

In the case of `O=S(=O)(Nc1ccc(-c2nc3cc(NS(=O)(=O)c4ccccc4)ccc3o2)cc1)c1ccccc1`, the EC50 (as a rule, the midpoint of the concentration-response curve) in data set [1] came out at 6.4 µM. In addition, the IC50 (usually the concentration that gives 50% inhibition) in data set [2] is 3.9 µM; in data set [3] it was above 100 µM; in data set [4], 4.6 µM; in data set [5] it was above 250 µM; in data set [8] it was above 63 µM. The EC50 at 48 h in data set [6] stood at 19 µM; in data set [7], 15 µM.
Consider `O=S(=O)(Nc1ccc(-c2nc3cc(NS(=O)(=O)c4cccc(F)c4)ccc3o2)cc1)c1cccc(F)c1`, for which the EC50 in data set [1] was determined as 10 µM. Further, the IC50 in data set [2] is 5.3 µM; in data set [3], 68 µM; in data set [4] it was 5.1 µM; in data set [5] it was above 250 µM; in data set [8] it was above 63 µM. The EC50 at 48 h in data set [6] was 20 µM; in data set [7], 24 µM.
As to `O=c1ccc2cc(S(=O)(=O)Nc3ccc(-c4nc5cc(NS(=O)(=O)c6ccc7oc(=O)ccc7c6)ccc5o4)cc3)ccc2o1`, in data set [1], the EC50 was above 42 µM. Besides, the IC50 in data set [2] was 18 µM; in data set [3] it was 70 µM; in data set [4], 83 µM; in data set [5], 201 µM; in data set [8], above 63 µM. Besides, the EC50 at 48 h in data set [6] and in data set [7] was above 100 µM each time.
In the case of `O=S(=O)(Nc1ccc(-c2nc3cc(NS(=O)(=O)C(F)(F)F)ccc3o2)cc1)C(F)(F)F`, in data set [1], the EC50 is above 42 µM. For the same compound, the IC50 is 40 µM in data set [2]; 97 µM in data set [3]; above 250 µM in data set [4]; above 250 µM in data set [5]; above 63 µM in data set [8]. In addition, the EC50 at 48 h in data set [6] and in data set [7] was above 100 µM in each case.
`Nc1ccccc1S(=O)(=O)Nc1ccc(-c2nc3cc(NS(=O)(=O)c4ccccc4N)ccc3o2)cc1`: the EC50 in data set [1] was found to be 3.3 µM. Further, the IC50 in data set [2] was 10 µM; in data set [3], above 100 µM; in data set [4], above 250 µM; in data set [5], above 250 µM; in data set [8], above 63 µM. Further, the EC50 at 48 h in data set [6] amounted to 18 µM; in data set [7], 14 µM.
In the case of `Nc1ccc(S(=O)(=O)Nc2ccc(-c3nc4cc(NS(=O)(=O)c5ccc(N)cc5)ccc4o3)cc2)cc1`, in data set [1], the EC50 turned out to be 22 µM. The IC50 in data set [2] was 1.4 µM; in data set [3], 68 µM; in data set [4] it was 1.7 µM; in data set [5] it was 224 µM; in data set [8], above 63 µM. In addition, the EC50 at 48 h in data set [6] was found to be 38 µM; in data set [7] it was 59 µM.
Take `COc1ccccc1S(=O)(=O)Nc1ccc(-c2nc3cc(NS(=O)(=O)c4ccccc4OC)ccc3o2)cc1`: the EC50 in data set [1] worked out at 2.7 µM. Also, the IC50 in data set [2] was 69 µM; in data set [3] it was above 100 µM; in data set [4], above 250 µM; in data set [5] it was above 250 µM; in data set [8] it was above 63 µM. Also, the values for the EC50 at 48 h in data set [6] and in data set [7] were above 100 µM and 79 µM, respectively.
As to `COc1ccc(S(=O)(=O)Nc2ccc(-c3nc4cc(NS(=O)(=O)c5ccc(OC)cc5)ccc4o3)cc2)cc1`, in data set [1], the EC50 was 3.3 µM. In addition, the IC50 in data set [2] is 36 µM; in data set [3], above 100 µM; in data set [4], 84 µM; in data set [5], above 250 µM; in data set [8], above 63 µM. Moreover, the EC50 at 48 h was above 100 µM in data set [6] and 88 µM in data set [7].
Regarding `O=S(=O)(Nc1ccc(-c2nc3cc(NS(=O)(=O)c4cccc5nonc45)ccc3o2)cc1)c1cccc2nonc12`, the EC50 in data set [1] is above 42 µM. In addition, the half-maximal inhibitory concentration (IC50) in data set [2] was 32 µM; in data set [3], 66 µM; in data set [4], above 250 µM; in data set [5] it was 212 µM; in data set [8], above 63 µM. The results for the EC50 at 48 h in data set [6] and in data set [7] were 58 µM and 45 µM, respectively.
Turning to `O=S(=O)(Nc1ccc(-c2nc3cc(NS(=O)(=O)c4cccc(Cl)c4)ccc3o2)cc1)c1cccc(Cl)c1`, the EC50 in data set [1] amounted to 4.5 µM. Besides, the IC50 in data set [2] was 18 µM; in data set [3] it was above 100 µM; in data set [4], above 250 µM; in data set [5], above 250 µM; in data set [8], above 63 µM. Further, the EC50 at 48 h in data set [6] worked out at 17 µM; in data set [7], 21 µM.
Consider `O=[N+]([O-])c1ccccc1S(=O)(=O)Nc1ccc(-c2nc3cc(NS(=O)(=O)c4ccccc4[N+](=O)[O-])ccc3o2)cc1`, for which the 50% effective concentration (EC50) in data set [1] was above 42 µM. For the same compound, the concentration for half-maximal inhibition (IC50) in data set [2] was 3.6 µM; in data set [3], 75 µM; in data set [4], 3.1 µM; in data set [5], 194 µM; in data set [8] it was above 63 µM. The EC50 at 48 h in data set [6] is 93 µM; in data set [7], 60 µM.
In the case of `O=S(=O)(Nc1ccc(-c2nc3cc(NS(=O)(=O)c4ccc5ncsc5c4)ccc3o2)cc1)c1ccc2ncsc2c1`, the EC50 in data set [1] was 25 µM. Besides, the IC50 in data set [2] was 0.81 µM; in data set [3], 49 µM; in data set [4], 0.55 µM; in data set [5], above 250 µM; in data set [8], above 63 µM. The EC50 at 48 h in data set [6] amounted to 30 µM; in data set [7] it was 95 µM.
For the compound `CCCS(=O)(=O)Nc1ccc(-c2nc3cc(NS(=O)(=O)CCC)ccc3o2)cc1`, the 50% effective concentration (EC50) in data set [1] turned out to be 18 µM. For the same compound, the IC50 in data set [2] was above 100 µM; in data set [3], above 100 µM; in data set [4], above 250 µM; in data set [5], above 250 µM; in data set [8] it was above 63 µM. Further, the concentration for a half-maximal effect (EC50) at 48 h in data set [6] and in data set [7] was above 100 µM in each case.
`Cc1ccc(C(=O)Nc2ccc(S(=O)(=O)O)c3cc(S(=O)(=O)O)cc(S(=O)(=O)O)c23)cc1NC(=O)c1cccc(NC(=O)Nc2cccc(C(=O)Nc3cc(C(=O)Nc4ccc(S(=O)(=O)O)c5cc(S(=O)(=O)O)cc(S(=O)(=O)O)c45)ccc3C)c2)c1` [SURAMIN]: the EC50 in data set [1] turned out to be 0.12 µM. The IC50 is 7.9 µM in data set [2]; 11 µM in data set [3]; above 250 µM in data set [4]; above 250 µM in data set [5]; above 63 µM in data set [8]. Also, the EC50 at 48 h in data set [6] and in data set [7] was above 100 µM each time.
As to `O=S(=O)(Nc1ccc(-c2nc3cc(NS(=O)(=O)c4ccccc4Cl)ccc3o2)cc1)c1ccccc1Cl`, the EC50 in data set [1] turned out to be 5.9 µM. Moreover, the half-maximal inhibitory concentration (IC50) was 46 µM in data set [2]; above 100 µM in data set [3]; 131 µM in data set [4]; above 250 µM in data set [5]; above 63 µM in data set [8]. Also, the EC50 at 48 h came to 24 µM in data set [6] and 75 µM in data set [7].
As to `O=S(=O)(Nc1ccc(-c2nc3cc(NS(=O)(=O)c4ccc(Br)cc4)ccc3o2)cc1)c1ccc(Br)cc1`, in data set [1], the EC50 amounted to 2.4 µM. The IC50 in data set [2] is 24 µM; in data set [3], above 100 µM; in data set [4], 19 µM; in data set [5], above 250 µM; in data set [8], above 63 µM. For the same compound, the EC50 at 48 h in data set [6] came out at 16 µM; in data set [7] it was 22 µM.
For `O=S(=O)(Nc1ccc(-c2nc3cc(NS(=O)(=O)c4ccccc4O)ccc3o2)cc1)c1ccccc1O`, the EC50 in data set [1] turned out to be 5 µM. Also, the IC50 in data set [2] came out at 7.5 µM; in data set [3], 13 µM; in data set [4], 36 µM; in data set [5] it was 33 µM. Moreover, the results for the 50% effective concentration (EC50) at 48 h in data set [6] and in data set [7] were 19 µM and 18 µM, respectively.

For the origin of these results see ChEMBL document CHEMBL3856280, “Targeting the HSP60/10 chaperonin systems of Trypanosoma brucei as a strategy for treating African sleeping sickness” (Bioorg Med Chem Lett, 2016).
